These are literature values, as cited in publication PMC6714113 (Research in Pharmaceutical Sciences, 2019).

The conditions of this series: read-out: IC50 (cytotoxicity).

Turning to `N[C@@H](Cc1ccc(B(O)O)cc1)C(=O)O` [BPA, boronophenylalanine], the 50% inhibitory concentration (IC50) was above 4 mM.

In general, IC50 refers to the concentration at which inhibition is half-maximal.
